Measurements taken from ChEMBL document CHEMBL1134241, “Spatial requirements of the antagonist binding site of the NK2 receptor” (Bioorg Med Chem Lett, 2001).

Target: T1, Substance-K receptor (Homo sapiens, UniProt P21452)
T1 sequence (P21452 whole entry): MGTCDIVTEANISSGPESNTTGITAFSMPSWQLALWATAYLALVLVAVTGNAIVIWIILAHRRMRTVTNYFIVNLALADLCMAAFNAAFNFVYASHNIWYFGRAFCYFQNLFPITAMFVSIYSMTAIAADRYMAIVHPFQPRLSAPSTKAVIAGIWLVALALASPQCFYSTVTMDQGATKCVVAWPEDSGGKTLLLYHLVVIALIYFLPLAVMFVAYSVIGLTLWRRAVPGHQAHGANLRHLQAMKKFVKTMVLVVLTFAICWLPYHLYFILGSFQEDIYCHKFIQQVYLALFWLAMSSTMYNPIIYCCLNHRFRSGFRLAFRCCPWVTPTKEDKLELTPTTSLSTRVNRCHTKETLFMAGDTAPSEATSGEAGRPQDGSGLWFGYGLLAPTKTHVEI
Assay: Binding affinity for heterologously expressed human Tachykinin receptor 2 using [3H]-SR- 48968 as radioligand

In order of falling IC50:
1. [O-][S+](C[C@]1(O)CCN2CCc3c([nH]c4ccc(F)cc34)[C@H]2C1)c1ccccc1 (mixture of isomers)  25300 nM
2. [O-][S+](c1ccccc1)C(c1ccccc1)C1(O)CCN(CCc2c[nH]c3ccc(F)cc23)CC1 (racemic)  111 nM
3. [O-][S+](CC1(O)CCN(CCc2c[nH]c3ccc(F)cc23)CC1)c1ccccc1 (racemic) [4-BENZENESULFINYLMETHYL-1-[2-(5-FLUORO-1H-INDOL-3-YL)-ETHYL]-PIPERIDIN-4-OL (STRUCTURAL MIX)]  22 nM
4. CN(C[C@@H](CCN1CCC(NC(=O)c2ccccc2)(c2ccccc2)CC1)c1ccc(Cl)c(Cl)c1)C(=O)c1ccccc1 (racemic)  14.3 nM
5. [O-][S+](CC1(O)CCN(CCc2c[nH]c3ccc(F)cc23)CC1)c1ccc2ccccc2c1 (racemic)  13.4 nM
6. CN(C)C(=O)NC1(c2ccccc2)CCN(CC[C@@]2(c3ccc(F)c(F)c3)CN(C(=O)c3ccccc3)CCO2)CC1 (racemic)  6 nM
7. COC1(C[S+]([O-])c2ccccc2)CCN(CCc2c[nH]c3ccc(F)cc23)CC1 (racemic)  2.5 nM
